We go through 13 compounds from patent US8148373B2, “Compounds” (AstraZeneca AB, priority 2008, dated 2012).

The target in test [1] is T1, human muscarinic acetylcholine M3 receptor (M3-ACh) (Homo sapiens, UniProt P20309).
T1 construct: expressed in transfected cells; host or cells: CHO-K1 (Chinese Hamster Ovary) cell membranes
The test can be described thus: Muscarinic 3 Receptor Binding Assay ([3H]NMS competition, SPA). As to conditions: [3H]NMS 0.1 nM, CHO-K1 cell membranes, 16 hours at room temperature; read-out: M3 pIC50 (converted). On the procedure:
Muscarinic 3 Receptor Binding Assay
The affinity (pIC50) of compounds binding to the M3 receptor is determined by competition binding of [^3H]N-methyl scopolamine (NMS) to CHO-K1 (Chinese Hamster Ovary) cell membranes expressing the human muscarinic acetylcholine M3 receptor (M3-ACh) in a scintillation proximity assay (SPA) format.
SPA beads are precoated with membranes and then incubated at 2 mg of beads per well with serial dilutions of compounds of the invention, [^3H]NMS at 0.1 nM, quarter Kd (experimentally determined dissociation constant) and assay buffer (20 mM HEPES pH 7.4 containing 5 mM MgCl2). The assay is conducted in a final volume of 200 μL, in the presence of 1% (v/v) dimethyl sulphoxide (DMSO). Total binding of [^3H]NMS is determined in the absence of competing compound and non-specific binding of [^3H]NMS is determined in the presence of 1 μM atropine. The plates are incubated for 16 hours at room temperature and then read on Wallac Microbeta™ using a normalised ^3H protocol. The pIC50, defined as the negative logarithm of the molar concentration of compound required for 50% reduction in specific [^3H]-NMS binding, is determined.

The target of test [2] is T2, Adrenergic β2 (H292 cells) (Homo sapiens, UniProt P07550).
T2 construct: endogenous in cells; host or cells: H292 cells
Nature of the test: Assay for Adrenergic β2 Mediated cAMP Production (concentration response, AlphaScreen cAMP detection). As to conditions: for EC50: cAMP production, 60 minutes at room temperature, 300 μM rolipram, read-out: β2 pEC50 (converted); for β2 Intrinsic activity: fraction relative to the maximum activity determined for formoterol. In kind it is cell-based. As to the method:
Assay for Adrenergic β2 Mediated Camp Production
H292 cells are grown in 225 cm2 flasks incubator at 37° C., 5% CO2 in RPMI medium containing 10% (v/v) FBS (foetal bovine serum) and 2 mM L-glutamine.
Adherent H292 cells are removed from tissue culture flasks by treatment with Accutase™ cell detachment solution for 15 minutes. Flasks are incubated for 15 minutes in a humidified incubator at 37° C., 5% CO2. Detached cells are re-suspended in RPMI media (containing 10% (v/v) FBS and 2 mM L-glutamine) at 0.1×10^6 cells per mL. 10000 cells in 100 μL are added to each well of a tissue-culture-treated 96-well plate and the cells incubated overnight in a humidified incubator at 37° C., 5% CO2. The culture media is removed and cells are washed twice with 100 μL assay buffer and replaced with 50 μL assay buffer (HBSS solution containing 10 mM HEPES pH7.4 and 5 mM glucose). Cells are rested at room temperature for 20 minutes after which time 25 μL of rolipram (1.2 mM made up in assay buffer containing 2.4% (v/v) dimethylsulphoxide) is added. Cells are incubated with rolipram for 10 minutes after which time test compounds are added and the cells are incubated for 60 minutes at room temperature. The final rolipram concentration in the assay is 300 μM and final vehicle concentration is 1% (v/v) dimethylsulphoxide. The reaction is stopped by removing supernatants, washing once with 100 μL assay buffer and replacing with 50 μL lysis buffer. The cell monolayer is frozen at −80° C. for 30 minutes (or overnight).
AlphaScreen™ cAMP Detection
The concentration of cAMP (cyclic adenosine monophosphate) in the cell lysate is determined using AlphaScreen™ methodology. The frozen cell plate is thawed for 20 minutes on a plate shaker then 10 μL of the cell lysate is transferred to a 96-well white plate. 40 μL of mixed AlphaScreen™ detection beads pre-incubated with biotinylated cAMP, is added to each well and the plate incubated at room temperature for 3 hours in the dark. The AlphaScreen™ signal is measured using an EnVision spectrophotometer (Perkin-Elmer Inc.) with the recommended manufacturer's settings. cAMP concentrations are determined by reference to a calibration curve determined in the same experiment using standard cAMP concentrations. Concentration response curves for agonists are constructed and data is fitted to a four parameter logistic equation to determine both the pEC50 and Intrinsic Activity. Intrinsic Activity is expressed as a fraction relative to the maximum activity determined for formoterol in each experiment.

Counter-ions that a name gives are not always drawn.

T1 sequence (P20309 whole entry): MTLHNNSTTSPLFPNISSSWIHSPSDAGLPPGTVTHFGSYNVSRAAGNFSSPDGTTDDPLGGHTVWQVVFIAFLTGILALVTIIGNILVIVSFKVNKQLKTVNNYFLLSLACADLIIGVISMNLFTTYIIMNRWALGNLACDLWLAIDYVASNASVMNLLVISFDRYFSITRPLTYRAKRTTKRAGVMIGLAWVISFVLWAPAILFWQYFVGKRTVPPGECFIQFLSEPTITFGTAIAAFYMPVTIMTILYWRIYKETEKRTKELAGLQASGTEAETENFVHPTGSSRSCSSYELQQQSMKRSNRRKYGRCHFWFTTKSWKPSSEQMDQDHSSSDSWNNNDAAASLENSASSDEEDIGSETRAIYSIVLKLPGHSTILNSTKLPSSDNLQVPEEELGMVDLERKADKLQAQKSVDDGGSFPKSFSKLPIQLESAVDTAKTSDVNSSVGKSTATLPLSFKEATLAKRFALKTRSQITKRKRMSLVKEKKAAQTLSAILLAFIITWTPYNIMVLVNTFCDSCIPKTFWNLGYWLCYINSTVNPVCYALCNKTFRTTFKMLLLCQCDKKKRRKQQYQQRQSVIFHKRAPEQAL
T2 sequence (P07550 whole entry): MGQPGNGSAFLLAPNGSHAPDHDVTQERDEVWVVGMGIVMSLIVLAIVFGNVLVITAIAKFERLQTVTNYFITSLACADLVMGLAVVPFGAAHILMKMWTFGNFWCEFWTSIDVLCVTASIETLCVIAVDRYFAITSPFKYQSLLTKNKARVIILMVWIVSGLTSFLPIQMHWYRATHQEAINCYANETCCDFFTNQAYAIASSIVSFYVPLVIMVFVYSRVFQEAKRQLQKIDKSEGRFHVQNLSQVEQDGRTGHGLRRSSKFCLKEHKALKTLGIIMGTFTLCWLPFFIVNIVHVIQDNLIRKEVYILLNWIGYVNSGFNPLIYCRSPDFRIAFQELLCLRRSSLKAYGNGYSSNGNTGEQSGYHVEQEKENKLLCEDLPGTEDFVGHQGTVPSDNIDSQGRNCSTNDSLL

As to `CC(C)c1cc(C(=O)N2CCOC3(CCN(Cc4cccc(CCNC[C@H](O)c5ccc(O)c6[nH]c(=O)sc56)c4)CC3)C2)cs1` [Example 82, (R)-4-Hydroxy-7-(1-hydroxy-2-(3-((4-(5-isopropylthiophene-3-carbonyl)-1-oxa-4,9-diazaspiro[5.5]undecan-9-yl)methyl)phenethylamino)ethyl)benzo[d]thiazol-2(3H)-one ditrifluoroacetate], in test [1], the IC50 is 0.398 nM. Moreover, in test [2], the EC50 is 3.98 nM and the “β2 Intrinsic activity” value is 0.9.
Taken in the same sequence, the figures for `Cc1ccc(C(=O)N2CCOC3(CCN(Cc4cccc(CCNC[C@H](O)c5ccc(O)c6[nH]c(=O)ccc56)c4)CC3)C2)s1` [Example 9, (R)-8-Hydroxy-5-(1-hydroxy-2-(3-((4-(5-methylthiophene-2-carbonyl)-1-oxa-4,9-diazaspiro[5.5]undecan-9-yl)methyl)phenethylamino)ethyl)quinolin-2(1H)-one ditrifluoracetate] were 2 nM, 5.01 nM and 0.9.
Taken in the same sequence, the figures for `Cc1ccc(C(=O)N2CCOC3(CCN(CCc4cccc(CNC[C@H](O)c5ccc(O)c6[nH]c(=O)sc56)c4)CC3)C2)s1` [Example 20, (R)-4-Hydroxy-7-(1-hydroxy-2-(3-(2-(4-(5-methylthiophene-2-carbonyl)-1-oxa-4,9-diazaspiro[5.5]undecan-9-yl)ethyl)benzylamino)ethyl)benzo[d]thiazol-2(3H)-one ditrifluoroacetate] were 31.6 nM, 200 nM and 0.8.
For `Cc1ccc(C(=O)N2CCOC3(CCN(Cc4cccc(OCCNC[C@H](O)c5ccc(O)c6[nH]c(=O)sc56)c4)CC3)C2)s1` [Example 38, (R)-4-Hydroxy-7-(1-hydroxy-2-(2-(3-((4-(5-methylthiophene-2-carbonyl)-1-oxa-4,9-diazaspiro[5.5]undecan-9-yl)methyl)phenoxy)ethylamino)ethyl)benzo[d]thiazol-2(3H)-one ditrifluoroacetate], in that order: 2.51 nM, 20 nM and 0.8.
For the compound `Cc1nc(C(=O)N2CCOC3(CCN(Cc4cccc(CCNC[C@H](O)c5ccc(O)c6[nH]c(=O)sc56)c4)CC3)C2)cs1` [Example 6, (R)-4-Hydroxy-7-(1-hydroxy-2-(3-((4-(2-methylthiazole-4-carbonyl)-1-oxa-4,9-diazaspiro[5.5]undecan-9-yl)methyl)phenethylamino)ethyl)benzo[d]thiazol-2(3H)-one ditrifluoroacetate], the IC50 in test [1] was 0.316 nM. In addition, in test [2], the EC50 was 3.98 nM and the “β2 Intrinsic activity” value is 0.9.
Taken in the same sequence, the figures for `CC(C)c1nc(C(=O)N2CCOC3(CCN(Cc4cccc(CCNC[C@H](O)c5ccc(O)c6[nH]c(=O)sc56)c4)CC3)C2)cs1` [Example 22, (R)-4-Hydroxy-7-O-hydroxy-2-(3-((4-(2-isopropylthiazole-4-carbonyl)-1-oxa-4,9-diazaspiro[5.5]undecan-9-yl)methyl)phenethylamino)ethyl)benzo[d]thiazol-2(3H)-one ditrifluoroacetate] were 0.126 nM, 10 nM and 0.9.
Taken in the same sequence, the figures for `O=C(c1csc(-c2ccccc2)n1)N1CCOC2(CCN(CCCCCCCCCNC[C@H](O)c3ccc(O)c4[nH]c(=O)sc34)CC2)C1` [Example 113, (R)-4-Hydroxy-7-(1-hydroxy-2-(9-(4-(2-phenylthiazole-4-carbonyl)-1-oxa-4,9-diazaspiro[5.5]undecan-9-yl)nonylamino)ethyl)benzo[d]thiazol-2(3H)-one formate] were 20 nM, 20 nM and 0.8.
As for `O=C(c1csc(CC(F)(F)F)n1)N1CCOC2(CCN(Cc3cccc(CCNC[C@H](O)c4ccc(O)c5[nH]c(=O)sc45)c3F)CC2)C1` [Example 67, (R)-7-(2-(2-Fluoro-3-((4-(2-(2,2,2-trifluoroethyl)thiazole-4-carbonyl)-1-oxa-4,9-diazaspiro[5.5]undecan-9-yl)methyl)phenethylamino)-1-hydroxyethyl)-4-hydroxybenzo[d]thiazol-2(3H)-one ditrifluoroacetate], in test [1], the IC50 is 3.16 nM. In addition, in test [2], the EC50 was 15.8 nM and the “β2 Intrinsic activity” value was 0.9.
For `CC(C)c1cnc(C(=O)N2CCOC3(CCN(Cc4cc(F)cc(CCNC[C@H](O)c5ccc(O)c6[nH]c(=O)sc56)c4)CC3)C2)s1` [Example 54, (R)-7-(2-(3-Fluoro-5-((4-(5-isopropylthiazole-2-carbonyl)-1-oxa-4,9-diazaspiro[5.5]undecan-9-yl)methyl)phenethylamino)-1-hydroxyethyl)-4-hydroxybenzo[d]thiazol-2(3H)-one ditrifluoroacetate], in that order: 200 nM, 6.31 nM and 0.9.
Consider `Cc1nc(C(=O)N2CCOC3(CCN(CCCOc4ccc(CNC[C@H](O)c5ccc(O)c6[nH]c(=O)sc56)cc4)CC3)C2)cs1` [Example 8, (R)-4-Hydroxy-7-(1-hydroxy-2-(4-(3-(4-(2-methylthiazole-4-carbonyl)-1-oxa-4,9-diazaspiro[5.5]undecan-9-yl)propoxy)benzylamino)ethyl)benzo[d]thiazol-2(3H)-one ditrifluoroacetate], for which, in test [1], the IC50 was 3.98 nM. Besides, in test [2], the EC50 is 39.8 nM and the “β2 Intrinsic activity” value came out at 1.0.
Taken in the same sequence, the figures for `CC(C)c1csc(C(=O)N2CCOC3(CCN(Cc4cc(F)cc(CCNC[C@H](O)c5ccc(O)c6[nH]c(=O)sc56)c4)CC3)C2)n1` [Example 53, (R)-7-(2-(3-Fluoro-5-((4-(4-isopropylthiazole-2-carbonyl)-1-oxa-4,9-diazaspiro[5.5]undecan-9-yl)methyl)phenethylamino)-1-hydroxyethyl)-4-hydroxybenzo[d]thiazol-2(3H)-one ditrifluoroacetate] were 12.6 nM, 10 nM and 1.
For the compound `CC(C)c1ncc(C(=O)N2CCOC3(CCN(CCCCCCCCCNC[C@H](O)c4ccc(O)c5[nH]c(=O)sc45)CC3)C2)s1` [Example 115, (R)-4-Hydroxy-7-(1-hydroxy-2-(9-(4-(2-isopropylthiazole-5-carbonyl)-1-oxa-4,9-diazaspiro[5.5]undecan-9-yl)nonylamino)ethyl)benzo[d]thiazol-2(3H)-one formate], the IC50 in test [1] was 7.94 nM. Further, in test [2], the EC50 was 6.31 nM and the “β2 Intrinsic activity” value was determined as 0.8.
Taken in the same sequence, the figures for `Cc1ccc(C(=O)N2CCOC3(CCN(Cc4cccc(CCNC[C@H](O)c5ccc(O)c6[nH]c(=O)sc56)c4)CC3)C2)s1` [Example 15, (R)-4-Hydroxy-7-(1-hydroxy-2-(3-((4-(5-methylthiophene-2-carbonyl)-1-oxa-4,9-diazaspiro[5.5]undecan-9-yl)methyl)phenethylamino)ethyl)benzo[d]thiazol-2(3H)-one trifluoroacetate] were 1.26 nM, 2.51 nM and 0.9.
